Here are results for 23 molecules from ChEMBL document CHEMBL3600294, “Synthesis, molecular docking and biological evaluation of 3-arylfuran-2(5H)-ones as anti-gastric ulcer agent” (Bioorg Med Chem, 2015).

Values after ≈ are worked out from the molar mass of the structure shown.

Data set [1] in a line: Antioxidant activity assessed as DPPH radical scavenging activity incubated for 30 mins. For orientation: DPPH is a stable violet radical that fades when it is reduced.
The test system of data set [2] is Helicobacter pylori. Briefly: Antibacterial activity against Helicobacter pylori ATCC 43504 after 24 hrs by microdilution broth method. Type of data set: functional. The note with it: ATCC 43504, 24 h. Background: Broth dilution looks for growth in wells or tubes with falling amounts of substance.
In data set [3] the target is Urease subunit alpha/Urease subunit beta (Helicobacter pylori (strain ATCC 700392 / 26695) (Campylobacterpylori), UniProt P69996). Briefly: Inhibition of Helicobacter pylori urease assessed as ammonia production preincubated for 1.5 hrs by indophenol method.
Data set [4] can be described thus: Inhibition of Staphylococcus aureus TyrRS expressed in Escherichia coli using [ring-3,5-3H]-tyrosine preincubated for 10 mins assessed as aminoacylation by liquid scintillation counting.

Chain of Urease subunit alpha/Urease subunit beta (P69996 whole entry): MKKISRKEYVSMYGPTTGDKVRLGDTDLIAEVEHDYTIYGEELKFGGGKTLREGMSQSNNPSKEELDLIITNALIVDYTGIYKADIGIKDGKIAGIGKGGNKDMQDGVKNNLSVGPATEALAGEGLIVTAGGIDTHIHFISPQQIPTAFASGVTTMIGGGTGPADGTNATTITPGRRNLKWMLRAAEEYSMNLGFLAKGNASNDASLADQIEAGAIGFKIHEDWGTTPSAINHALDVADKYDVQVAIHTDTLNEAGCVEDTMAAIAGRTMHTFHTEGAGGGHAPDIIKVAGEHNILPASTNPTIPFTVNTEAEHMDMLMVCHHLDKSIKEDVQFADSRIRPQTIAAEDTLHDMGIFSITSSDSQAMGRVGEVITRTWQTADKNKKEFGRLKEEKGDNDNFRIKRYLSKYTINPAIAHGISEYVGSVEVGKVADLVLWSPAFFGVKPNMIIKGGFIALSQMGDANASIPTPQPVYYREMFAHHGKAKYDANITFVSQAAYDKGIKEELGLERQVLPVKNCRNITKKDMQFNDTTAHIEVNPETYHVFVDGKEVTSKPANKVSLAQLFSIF
Chain of Urease subunit alpha/Urease subunit beta (P14916 whole entry, further chain): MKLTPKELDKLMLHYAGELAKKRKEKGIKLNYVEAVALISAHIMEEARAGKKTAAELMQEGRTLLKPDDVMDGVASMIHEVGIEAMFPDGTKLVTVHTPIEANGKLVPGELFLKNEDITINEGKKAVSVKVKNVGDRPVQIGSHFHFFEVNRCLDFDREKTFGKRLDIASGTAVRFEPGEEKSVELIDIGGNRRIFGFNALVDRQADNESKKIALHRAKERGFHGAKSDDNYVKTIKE

By IC50 is commonly meant the concentration that inhibits the measured activity by half. The term MIC50 denotes the lowest concentration that inhibits either 50% of growth or 50% of the strains tested, depending on the study. Low values mean higher susceptibility, high ones lower susceptibility. Consider `Cc1ccccc1C1=C(O)COC1=O`, for which the IC50 worked out at 45.6 µM in data set [1] (DPPH radical solution), 65 µM in data set [3] and 0.6 µM in data set [4]. The MIC50 in data set [2] was found to be 1.5 µg/mL (≈ 7.89 µM).
In the case of `Cc1cccc(C2=C(O)COC2=O)c1`, the IC50 is 8.2 µM in data set [1] (DPPH radical solution), 31.1 µM in data set [3] and 1.1 µM in data set [4]. The MIC50 in data set [2] came to 2.6 µg/mL (≈ 13.7 µM).
As to `O=C1OCC(O)=C1c1ccccc1F`, the IC50 is above 100 µM in data set [1] (DPPH radical solution), 75 µM in data set [3] and 1.9 µM in data set [4]. The MIC50 in data set [2] was found to be 2.7 µg/mL (≈ 13.9 µM).
For the molecule `O=C1OCC(O)=C1c1cccc(Cl)c1`, the IC50 came to 16.5 µM in data set [1] (DPPH radical solution), 45.3 µM in data set [3] and 15.4 µM in data set [4]. Further, the MIC50 in data set [2] turned out to be 36.7 µg/mL (≈ 174 µM).
For `COc1ccc(C2=C(O)COC2=O)cc1OC`, the IC50 in data set [1] (DPPH radical solution) was determined as 20.4 µM; in data set [3], 36.5 µM. Further, in data set [2], the MIC50 worked out at 46.2 µg/mL (≈ 196 µM).
With `O=C1OCC(OCCN2CCOCC2)=C1c1ccc(O)cc1`, the IC50 in data set [4] turned out to be 0.1 µM.
Take `O=C1OCC(O)=C1c1ccccc1Cl`: the IC50 was above 100 µM in data set [1] (DPPH radical solution) and 68 µM in data set [3]. The MIC50 in data set [2] was 36.7 µg/mL (≈ 174 µM).
With `O=C1OCC(O)=C1c1ccccc1OCc1ccccc1`, the IC50 in data set [1] (DPPH radical solution) is above 100 µM; in data set [3], 50 µM; in data set [4], 2.5 µM. The MIC50 in data set [2] was 13.8 µg/mL (≈ 48.9 µM).
With `O=C1OCC(O)=C1c1ccc(Br)cc1`, the values for the IC50 in data set [1] (DPPH radical solution) and in data set [3] were 16.8 µM and above 100 µM, respectively. For the same molecule, the MIC50 in data set [2] was 61.3 µg/mL (≈ 240 µM).
Consider `CCOc1ccc(C2=C(O)COC2=O)cc1OCC`, for which the IC50 in data set [1] (DPPH radical solution) worked out at 23.4 µM; in data set [3], 91.7 µM. In addition, the MIC50 in data set [2] worked out at 72.5 µg/mL (≈ 274 µM).
As to `O=C1OCC(O)=C1c1cccc(OCc2ccccc2)c1`, the IC50 in data set [1] (DPPH radical solution) was determined as 31.5 µM; in data set [3] it was 77.5 µM. Moreover, the MIC50 in data set [2] was 31.7 µg/mL (≈ 112 µM).
As to `O=C1OCC(O)=C1c1ccc(Cl)cc1Cl`, the IC50 in data set [1] (DPPH radical solution) and in data set [3] was above 100 µM in each case. Besides, the MIC50 in data set [2] was above 100 µg/mL.
For the molecule `O=C1OCC(O)=C1c1ccccc1`, the IC50 came out at 13.5 µM in data set [1] (DPPH radical solution), 89 µM in data set [3] and 5.6 µM in data set [4]. Moreover, in data set [2], the MIC50 turned out to be 4.7 µg/mL (≈ 26.7 µM).
As for `O=C1OCC(O)=C1c1cccc(F)c1`, the half-inhibitory concentration (IC50) is 23.5 µM in data set [1] (DPPH radical solution), 62 µM in data set [3] and 27.8 µM in data set [4]. Also, the MIC50 in data set [2] is above 100 µg/mL.
Consider `O=C1OCC(O)=C1c1ccc(Cl)cc1`, for which the IC50 in data set [1] (DPPH radical solution) was 18.5 µM; in data set [3], above 100 µM. Besides, the MIC50 in data set [2] is 49.3 µg/mL (≈ 234 µM).
In the case of `O=C1OCC(O)=C1c1cccc(Br)c1`, the IC50 came out at 11.2 µM in data set [1] (DPPH radical solution), 81.8 µM in data set [3] and 13.1 µM in data set [4]. For the same molecule, in data set [2], the MIC50 amounted to 24.5 µg/mL (≈ 96.1 µM).
For `O=C1OCC(O)=C1c1ccc(Cl)c(Cl)c1`, the IC50 was 28.7 µM in data set [1] (DPPH radical solution) and above 100 µM in data set [3]. The MIC50 in data set [2] was above 100 µg/mL.
With `Cc1ccc(C2=C(O)COC2=O)cc1`, the IC50 in data set [1] (DPPH radical solution) was 12.3 µM; in data set [3], above 100 µM; in data set [4], 8.6 µM. In data set [2], the MIC50 turned out to be 15.2 µg/mL (≈ 79.9 µM).
For the molecule `O=C1OCC(O)=C1c1ccc(OCc2ccccc2)cc1`, the IC50 in data set [1] (DPPH radical solution) was found to be 34 µM; in data set [3], 10.5 µM; in data set [4], 30 µM. This molecule also displayed an MIC50 in data set [2] of 52.1 µg/mL (≈ 185 µM).
With `O=C1OCC(O)=C1c1ccc(F)cc1`, the IC50 in data set [1] (DPPH radical solution) was above 100 µM; in data set [3], 40.6 µM. Also, the MIC50 in data set [2] was found to be 27.7 µg/mL (≈ 143 µM).
On to `O=C1OCC(O)=C1c1cccc(C(F)(F)F)c1`, for which the results for the 50% inhibitory concentration (IC50) in data set [1] (DPPH radical solution), in data set [3] and in data set [4] were 110 µM, 64.4 µM and 17.5 µM, respectively. In data set [2], this molecule had an MIC50 of 28.2 µg/mL (≈ 115 µM).
Consider `O=C1O[C@H]([C@@H](O)CO)C(O)=C1O` [ASCORBIC ACID], for which the IC50 in data set [1] turned out to be 12.1 µM.
For the molecule `CC1(C)S[C@@H]2[C@H](NC(=O)[C@H](N)c3ccc(O)cc3)C(=O)N2[C@H]1C(=O)O` [AMOXICILLIN], in data set [2], the MIC50 stood at 0.8 µg/mL (≈ 2.19 µM).
